From patent US5196510A, “Molecular recognition units” (Cytogen Corporation, priority 1990, dated 1993)
Where two headings read alike, the source gives them in different places. Residues, ends and D or L forms follow the SMILES beside them. No end group written: not given here.

Tests used:
[1] = tested on: thrombus induced in the jugular vein; assay: Rabbit thrombus model biodistribution and gamma camera imaging; type: in vivo; conditions: for localization to / uptake in the clot in gamma camera images (in words): thrombus in left jugular vein, Tc-99m labeled peptide (FIGS. 3-5)
Method: Two kg or larger white New Zealand rabbits were anesthetised and a thrombus induced in the jugular vein as follows: the jugular vein was surgically exposed, side branches tied off and a segment of about 1 inch in length was clamped off. A silk thread was introduced through the segment with both ends external. Ten units of bovine thrombin in Tris-buffered saline (TBS) pH 7.5 were added by syringe. After 10 minutes, the clamp was removed and the wound closed. After 1 hour, approximately 50 μg of a MRU conjugate which is a fusion peptide labeled with Tc-99m as described in Section 8.1, supra, was injected via the contralateral ear vein. I-125 labeled fibrinogen was subsequently injected as a control in order to assess normal blood clearance and clot localization. […] The animals were then sacrificed and the amount of Tc-99m and I-125 in various organs was assessed. A Tc-99m labeled nonspecific peptide analogue containing the RYYD sequence served as a control.

[2] = target: T1, activated platelet fibrinogen receptor (Homo sapiens, UniProt P05106+P08514); assay: Inhibition of binding of 125-I PAC-1 antibody to activated platelets; conditions: inhibition of 125-I PAC-1 binding to platelets activated with PMA or ADP, 37 degrees C, 1 hr; read-out: IC-50 (μM) Binding
T1 construct: Platelets were isolated by placing 7 ml of platelet-rich-plasma onto a 50 ml column of Sepharose 2-B; endogenous in cells
Method: The ability of the fusion peptides and of peptides comprising the binding domain of the peptides, specific for the activated platelet fibrinogen receptor, to inhibit the binding of PAC-1 antibody was assessed as follows:
Platelets were isolated by placing 7 ml of platelet-rich-plasma onto a 50 ml column of Sepharose 2-B equilibrated in Walshes 1% BSA buffer (1.0 g NaCl, 0.2 g KCl, 0.2 g MgCl2, 0.45 g NaH 0.9 g HEPES, 1.0 g BSA and 1.0 g dextrose in sufficient water to make exactly 1 liter), pH 7.45. The cloudiest tubes were pooled to obtain 14 ml of platelets (approximately 300,000/μl). The peptide in Walshes 1% BSA buffer and 20,000 CpM of 125-I-pAC 1 (5 μCi/μg) was added to one ml of this in a microfuge tube. Platelets were next activated with 0.1 μM phorbol myristate acetate or 10 μM ADP at 37 degrees C. After 1 hr, platelets were pelleted at top speed in a horizontal microfuge, washed gently, and the tube bottom removed with dog nail clippers and it, supernatant and wash were counted in a […]. […] Varied levels of peptide were examined and IC-50 was determined from a graph of % inhibition versus peptide concentration.

[3] = type: in vitro ADME, human; conditions: 37° C
Method: A representative peptide designated "Pac-2" of the sequence: […] was labeled with 125-Iodine via standard techniques (Iodobead) (see Markwell, 1982, Anal. Biochem. 125: 427-32). Stability of the labeled peptide, having either an unblocked or blocked amino terminal end, to proteolytic enzymes in plasma was assayed as follows: Labeled peptides were incubated in fresh citrated human platelet-poor plasma in sealed tubes at 37° C. Aliguots were removed at various times and assayed using reverse phase HPLC. Degradation was calculated by loss of the original radioactive peak on a reverse phase HPLC C-6 column using 0-60% acetonitrile in 20 mM Na phosphate, pH, 6.0. Inhibitors of proteolytic enzymes in plasma were used to identify responsible enzyme classes and included: EDTA (metalloenzymes), benzamidine (serine endoproteases), bestatin (aminopeptidases) and leupeptin ([…]).

platelet aggregation = platelet aggregation (Homo sapiens, UniProt P05106+P08514); assay: Inhibition of platelet aggregation (Payton Aggregometer, ADP); type: cell-based
Method: The ability of the fusion peptides and of peptides comprising the binding domain of the fusion peptides to inhibit platelet aggregation was assessed as follows:
[…], human plasma was prepared by centrifugation of citrated human plasma at 900 rpm, Sorvall Rc-3, for 20 minutes at room temperature. 0.5 mL of the platelet solution was placed in the cuvette of a Payton Aggregometer, followed by 50 μL of a solution containing various concentrations, up to 200 μM, of the peptide being assayed. After 1 minute, 5 μL of 10 mM ADP in water was added. The aggregation rate was assessed by a change in the slope of the absorbance curve.

T1 sequence (P08514 32-887 limits assumed): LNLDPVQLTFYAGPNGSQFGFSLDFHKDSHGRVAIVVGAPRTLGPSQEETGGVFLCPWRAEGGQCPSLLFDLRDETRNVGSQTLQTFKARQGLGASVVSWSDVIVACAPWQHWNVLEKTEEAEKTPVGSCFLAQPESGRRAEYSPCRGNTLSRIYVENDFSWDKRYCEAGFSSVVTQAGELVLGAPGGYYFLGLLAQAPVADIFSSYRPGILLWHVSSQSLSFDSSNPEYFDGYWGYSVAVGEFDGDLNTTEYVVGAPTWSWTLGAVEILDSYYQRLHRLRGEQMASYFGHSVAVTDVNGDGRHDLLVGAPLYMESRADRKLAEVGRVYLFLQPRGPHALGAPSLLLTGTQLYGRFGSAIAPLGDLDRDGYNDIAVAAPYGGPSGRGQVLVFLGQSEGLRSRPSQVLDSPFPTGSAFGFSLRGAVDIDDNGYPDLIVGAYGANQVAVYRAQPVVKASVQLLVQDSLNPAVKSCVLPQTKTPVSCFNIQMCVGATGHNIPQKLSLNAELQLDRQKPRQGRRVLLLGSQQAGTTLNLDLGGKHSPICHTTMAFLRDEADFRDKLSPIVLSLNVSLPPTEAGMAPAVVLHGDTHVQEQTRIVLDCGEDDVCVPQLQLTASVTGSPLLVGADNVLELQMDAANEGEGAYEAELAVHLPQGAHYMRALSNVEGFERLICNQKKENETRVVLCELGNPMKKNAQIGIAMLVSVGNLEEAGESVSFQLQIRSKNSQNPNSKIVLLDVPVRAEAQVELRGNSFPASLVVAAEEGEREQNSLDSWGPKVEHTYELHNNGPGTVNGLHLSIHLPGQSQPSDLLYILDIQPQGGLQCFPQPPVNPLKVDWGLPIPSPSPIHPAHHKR
T1 sequence (P08514 891-1039 partner limits assumed): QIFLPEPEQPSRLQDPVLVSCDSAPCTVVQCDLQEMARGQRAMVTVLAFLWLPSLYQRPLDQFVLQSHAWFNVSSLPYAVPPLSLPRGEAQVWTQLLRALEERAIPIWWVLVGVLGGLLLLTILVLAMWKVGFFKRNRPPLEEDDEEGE
T1 sequence (P05106 27-788): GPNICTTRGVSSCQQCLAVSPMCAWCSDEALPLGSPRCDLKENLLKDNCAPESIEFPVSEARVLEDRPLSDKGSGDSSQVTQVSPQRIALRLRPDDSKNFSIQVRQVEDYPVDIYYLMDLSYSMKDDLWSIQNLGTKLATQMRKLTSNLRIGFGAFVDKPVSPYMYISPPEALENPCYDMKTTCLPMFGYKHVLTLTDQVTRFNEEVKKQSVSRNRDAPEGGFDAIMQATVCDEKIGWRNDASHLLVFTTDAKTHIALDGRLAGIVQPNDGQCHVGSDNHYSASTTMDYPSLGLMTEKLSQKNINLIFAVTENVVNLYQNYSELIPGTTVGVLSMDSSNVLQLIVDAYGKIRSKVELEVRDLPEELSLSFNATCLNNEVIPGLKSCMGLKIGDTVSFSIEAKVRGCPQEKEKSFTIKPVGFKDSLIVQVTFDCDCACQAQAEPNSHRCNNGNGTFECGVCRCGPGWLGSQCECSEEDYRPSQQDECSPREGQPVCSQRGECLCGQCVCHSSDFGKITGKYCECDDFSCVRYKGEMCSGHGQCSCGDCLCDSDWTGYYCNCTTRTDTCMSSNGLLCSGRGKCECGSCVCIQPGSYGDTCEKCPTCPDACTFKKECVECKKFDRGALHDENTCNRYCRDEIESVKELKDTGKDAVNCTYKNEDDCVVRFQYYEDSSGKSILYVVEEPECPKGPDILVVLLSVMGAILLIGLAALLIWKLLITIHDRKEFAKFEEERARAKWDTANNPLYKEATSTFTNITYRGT
Chain of platelet aggregation (P08514 32-1039): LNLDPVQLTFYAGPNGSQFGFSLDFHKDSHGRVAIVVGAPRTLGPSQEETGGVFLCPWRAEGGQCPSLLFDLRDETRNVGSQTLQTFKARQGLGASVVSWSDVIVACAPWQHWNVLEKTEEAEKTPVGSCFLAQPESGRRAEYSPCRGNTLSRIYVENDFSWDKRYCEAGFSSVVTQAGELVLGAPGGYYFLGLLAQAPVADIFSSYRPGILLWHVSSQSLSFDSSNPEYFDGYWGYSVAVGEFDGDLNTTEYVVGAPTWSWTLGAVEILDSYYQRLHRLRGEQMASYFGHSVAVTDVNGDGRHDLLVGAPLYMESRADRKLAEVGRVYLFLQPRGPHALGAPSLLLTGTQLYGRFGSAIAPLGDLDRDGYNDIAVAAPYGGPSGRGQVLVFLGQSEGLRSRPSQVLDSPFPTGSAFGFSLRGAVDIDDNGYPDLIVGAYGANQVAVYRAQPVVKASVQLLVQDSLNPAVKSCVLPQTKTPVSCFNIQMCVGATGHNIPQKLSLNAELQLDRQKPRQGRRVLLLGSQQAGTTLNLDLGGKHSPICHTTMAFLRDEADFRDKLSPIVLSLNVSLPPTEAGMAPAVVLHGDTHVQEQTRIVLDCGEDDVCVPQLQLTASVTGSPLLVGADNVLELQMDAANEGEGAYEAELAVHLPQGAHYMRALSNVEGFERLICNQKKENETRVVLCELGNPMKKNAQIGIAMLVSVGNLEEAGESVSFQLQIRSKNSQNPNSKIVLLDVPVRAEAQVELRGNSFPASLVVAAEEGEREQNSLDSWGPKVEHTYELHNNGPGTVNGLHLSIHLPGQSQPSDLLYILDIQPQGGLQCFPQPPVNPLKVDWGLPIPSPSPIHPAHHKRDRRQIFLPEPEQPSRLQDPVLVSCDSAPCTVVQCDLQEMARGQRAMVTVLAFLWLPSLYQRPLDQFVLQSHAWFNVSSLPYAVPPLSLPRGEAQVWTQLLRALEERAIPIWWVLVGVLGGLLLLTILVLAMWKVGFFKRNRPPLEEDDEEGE
Chain of platelet aggregation (P05106 27-788): as the sequence (P05106 27-788) above

CC(=O)N[C@@H](CO)C(=O)N[C@@H](Cc1ccc(O)cc1)C(=O)NCC(=O)N[C@@H](CCCNC(=N)N)C(=O)NCC(=O)N[C@@H](CC(=O)O)C(=O)N[C@H](C(=O)N[C@@H](CCCNC(=N)N)C(=O)NCC(=O)N[C@@H](CC(=O)O)C(=O)N[C@@H](Cc1ccccc1)C(=O)N[C@@H](CCCCN)C(=O)N[C@@H](CS)C(=O)N[C@H](C(=O)N[C@@H](CS)C(=O)N[C@@H](CS)C(=O)N[C@@H](C)C(N)=O)[C@@H](C)O)C(C)C [PAC-8] (Ac-SYGRGDVRGDFKCTCCA-NH2)
time after injection at which the clot is imaged ([1]; gamma camera): ≤ 18 min
persistence of the clot image ([1]; gamma camera (FIG. 3D)): ≥ 4 h
localization to / uptake in the clot in gamma camera images (in words) [1]: localizes to and images the clot

CC(=O)N[C@@H](CCCCN)C(=O)N[C@@H](CS)C(=O)N[C@H](C(=O)N[C@@H](CS)C(=O)N[C@@H](CS)C(=O)N[C@@H](C)C(=O)N1CCC[C@H]1C(=O)N[C@@H](CO)C(=O)N[C@@H](Cc1ccc(O)cc1)C(=O)N[C@@H](Cc1ccc(O)cc1)C(=O)N[C@@H](CCCNC(=N)N)C(=O)NCC(=O)N[C@@H](CC(=O)O)C(=O)NCC(=O)N[C@@H](C)C(=O)N1CCC[C@H]1C(=O)N[C@@H](CO)C(=O)N[C@@H](Cc1ccc(O)cc1)C(=O)N[C@@H](Cc1ccc(O)cc1)C(=O)N[C@@H](CCCNC(=N)N)C(=O)NCC(=O)N[C@@H](CC(=O)O)C(=O)NCC(=O)N[C@@H](C)C(=O)N1CCC[C@H]1C(=O)N[C@@H](CO)C(=O)N[C@@H](Cc1ccc(O)cc1)C(=O)N[C@@H](Cc1ccc(O)cc1)C(=O)N[C@@H](CCCNC(=N)N)C(=O)NCC(=O)N[C@@H](CC(=O)O)C(=O)N[C@@H](C)C(N)=O)[C@@H](C)O [PAC-15] (Ac-KCTCCAPSYYRGDGAPSYYRGDGAPSYYRGDA-NH2)
localization to / uptake in the clot in gamma camera images (in words) [1]: clearly localize and permit imaging of the clot

CC(=O)N1CCC[C@H]1C(=O)N[C@@H](CO)C(=O)N[C@@H](Cc1ccc(O)cc1)C(=O)N[C@@H](Cc1ccc(O)cc1)C(=O)N[C@@H](CCCNC(=N)N)C(=O)NCC(=O)N[C@@H](CC(=O)O)C(=O)NCC(=O)N[C@@H](C)C(=O)N1CCC[C@H]1C(=O)N[C@@H](CO)C(=O)N[C@@H](Cc1ccc(O)cc1)C(=O)N[C@@H](Cc1ccc(O)cc1)C(=O)N[C@@H](CCCNC(=N)N)C(=O)NCC(=O)N[C@@H](CC(=O)O)C(=O)NCC(=O)N[C@@H](C)C(=O)N1CCC[C@H]1C(=O)N[C@@H](CO)C(=O)N[C@@H](Cc1ccc(O)cc1)C(=O)N[C@@H](Cc1ccc(O)cc1)C(=O)N[C@@H](CCCNC(=N)N)C(=O)NCC(=O)N[C@@H](CC(=O)O)C(=O)N[C@@H](C)C(=O)N[C@@H](CCCCN)C(=O)N[C@@H](CS)C(=O)N[C@H](C(=O)N[C@@H](CS)C(=O)N[C@@H](CS)C(=O)N[C@@H](C)C(N)=O)[C@@H](C)O [PAC-16] (Ac-PSYYRGDGAPSYYRGDGAPSYYRGDAKCTCCA-NH2)
localization to / uptake in the clot in gamma camera images (in words) [1]: clearly localize and permit imaging of the clot

ARRSPSYYRGDAGPYYAMDY
IC50 [2]: 10 µM

ARRSPSYYRYDAGPYYAMDY
IC50 [2]: 90 µM

acARRSPSYYRGDAGPYYAMDYKCTCCA-a [PAC-2]
Half-Life ([3]; inhibitor 1 mM Bestatin, human platelet-poor plasma): 8.5 min
Half-Life ([3]; no inhibitor, 125-I labeled peptide in citrated human platelet-poor plasma): 2.1 min

acARRSPSYYRYYDAGPYYAMDYKCTCCA-a [PAC-3]
inhibition of platelet aggregation and/or PAC-1 binding (in words) (platelet aggregation): lack of platelet inhibition
localization to / uptake in the clot in gamma camera images (in words) [1]: no uptake in the region of the clot
